Laboratory results from US20170129919A1, “CYCLIC DIPEPTIDE-CONTAINING COMPOSITION” (Suntory Holdings Limited, priority 2014, published 2017).
≈ marks a conversion by molar mass, not a printed value.

Assays:
xanthine oxidase (XO) [1] = assay: In vitro xanthine oxidase (XO) inhibiting action; format: biochemical; details: Table 1; PBS pH 7.5, xanthine substrate, absorbance at 295 nm after 30 minutes; mean±standard error; read-out: IC50 (Activity of Inhibiting XO of Tyr-Containing Cyclic Dipeptides)
Experimental: The in vitro xanthine oxidase (XO) inhibiting action was studied on 210 kinds of cyclic dipeptides, linear dipeptides Tyr-Gly and Gly-Tyr, and an amino acid Tyr. […] Thereafter, 20 μL of a 250 μM xanthine solution previously dissolved in the PBS was added thereto, and the absorbance after 30 minutes was measured using a spectrophotometer (Synegy HT, manufactured by Bio Tek). The XO inhibition rate (%) at each concentration was calculated by the following calculation formula, to obtain activities of inhibiting XO (IC50 values).

[2] = Stability of standard product in aqueous solution (LC-MS/MS content measurement); format: physicochemical
xanthine oxidase (XO) [3] = biological target: T1, xanthine oxidase (XO) (Mus musculus, UniProt Q00519); assay: XO activity in the liver and sera of hyperuricemic mice; format: in vivo, BALBc mice; details: 100 mg/kg orally
T1 construct: the collected supernatant was subjected to an assay for a xanthine oxidase (XO) activity; from tissue; host or cells: liver homogenate supernatant and serum of male BALBc mice (potassium oxonate hyperuricemia model)
T1 sequence (Q00519 whole entry): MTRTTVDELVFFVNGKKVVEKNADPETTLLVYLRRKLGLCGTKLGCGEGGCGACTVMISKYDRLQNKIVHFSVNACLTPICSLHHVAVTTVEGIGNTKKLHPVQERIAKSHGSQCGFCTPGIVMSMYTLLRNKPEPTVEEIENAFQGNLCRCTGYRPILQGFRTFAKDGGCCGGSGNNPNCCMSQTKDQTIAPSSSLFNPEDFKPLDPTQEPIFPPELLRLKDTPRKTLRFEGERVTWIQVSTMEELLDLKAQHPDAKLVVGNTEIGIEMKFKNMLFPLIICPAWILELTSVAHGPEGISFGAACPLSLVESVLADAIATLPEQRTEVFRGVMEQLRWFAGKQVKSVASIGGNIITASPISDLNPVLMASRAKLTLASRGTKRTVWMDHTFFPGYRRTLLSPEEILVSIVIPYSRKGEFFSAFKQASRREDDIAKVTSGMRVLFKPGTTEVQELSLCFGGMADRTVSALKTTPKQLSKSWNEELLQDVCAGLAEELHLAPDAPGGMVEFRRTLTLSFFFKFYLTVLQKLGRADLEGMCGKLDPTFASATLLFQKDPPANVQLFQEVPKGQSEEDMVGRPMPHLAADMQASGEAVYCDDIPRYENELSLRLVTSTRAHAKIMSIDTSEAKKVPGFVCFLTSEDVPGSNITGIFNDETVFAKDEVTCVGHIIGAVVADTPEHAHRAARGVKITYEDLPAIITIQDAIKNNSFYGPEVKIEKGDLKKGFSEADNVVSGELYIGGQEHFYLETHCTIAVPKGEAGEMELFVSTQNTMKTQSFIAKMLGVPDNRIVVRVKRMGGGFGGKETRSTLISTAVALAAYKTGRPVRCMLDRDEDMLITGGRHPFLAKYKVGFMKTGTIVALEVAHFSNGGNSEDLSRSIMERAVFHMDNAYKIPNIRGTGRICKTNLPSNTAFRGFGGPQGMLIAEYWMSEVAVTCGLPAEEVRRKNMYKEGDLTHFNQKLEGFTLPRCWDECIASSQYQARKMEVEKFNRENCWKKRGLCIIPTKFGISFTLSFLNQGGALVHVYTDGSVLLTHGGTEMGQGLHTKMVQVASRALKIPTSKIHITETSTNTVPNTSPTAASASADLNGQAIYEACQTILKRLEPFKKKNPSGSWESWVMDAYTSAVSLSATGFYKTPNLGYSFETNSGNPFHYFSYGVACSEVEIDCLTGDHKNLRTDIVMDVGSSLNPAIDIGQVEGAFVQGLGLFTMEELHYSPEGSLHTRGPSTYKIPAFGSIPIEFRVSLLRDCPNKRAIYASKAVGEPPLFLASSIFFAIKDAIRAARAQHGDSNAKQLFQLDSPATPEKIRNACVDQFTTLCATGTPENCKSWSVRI
Experimental: As to the animals used, male 7-week old BALBc mice were purchased from CLEA Japan, Inc., and subjected to an experiment after a one-week period of conditioning. […] During the period of conditioning, the mice were allowed to take a commercially available feed (CE-2, manufactured by CLEA Japan, Inc.) and distilled water ad libitum.
Next, the livers of mice were added to a mixture of an ice-cooled protease inhibitor cocktail and an EDTA-containing tissue protein extraction reagent (T-PER), homogenized, and then centrifuged at 15,000 rpm, at 4° C. for 15 minutes, and the collected supernatant was subjected to an assay for a xanthine oxidase (XO) activity. […]

hyperuricemic mice = assay: Action of lowering serum uric acid levels for hyperuricemic mice (potassium oxonate model); format: in vivo, BALBc mice; details: FIG. 2
Experimental: As to the animals used, male 7-week old BALBc mice were purchased from CLEA Japan, Inc., and subjected to an experiment after a one-week period of conditioning. The animals were bred in a breeding room with air-conditioning facilities (temperature: 23.5°±1.0° C., humidity: 55±10 RH %, the number of ventilation: 12 to 15 times/hour, illuminated: from 7:00 to 19:00 each day). During the period of conditioning, the mice were allowed to take a commercially available feed (CE-2, manufactured by CLEA Japan, Inc.) and distilled water ad libitum.
Oxonic acid is a substance that raises a blood uric acid level by inhibiting a urikase, a metabolic enzyme for uric acid. In view of the above, potassium oxonate (PO) was administered, thereby generating hyperuricemic model animals (see, Planta Med 2009; 75:302-306). Studies were made on the following 6 groups:
In all the groups that include PO administration, PO previously suspended in a 0.5% aqueous CMC-Na solution at 250 mg/kg was administered, and Normal Group was administered with a 0.5% aqueous CMC-Na solution, each being administered intraperitoneally. […] After 2 hours from the administration with PO, the blood was collected from the abdominal vena cava under anesthesia. After blood removal, the liver was harvested. The collected blood was allowed to stand at room temperature for 45 minutes, and centrifuged at 8,000 rpm for 10 minutes to recover sera. Here, the sera and the liver were preserved at −80° C. until the measurements were carried out.
The serum uric acid level was measured using 7180 Clinical Analyzer (manufactured by Hitachi Technologies).
The actions of lowering serum uric acid levels of soybean peptide heat-treated products were studied using hyperuricemic model animals, in the same manner as in Test Example 2. Concretely, the animals used were furnished in the same manner as in Test Example 2, and studies were made on the following 5 groups.
For each of the above-mentioned groups, the administration and the blood collection were carried out in the same manner as in Test Example 2 to measure a serum uric acid level. […]
Here, the heat-treated product of the soybean peptide obtained by dissolving a soybean peptide (Hinute AM, manufactured by FUJI OIL, CO., LTD.) in distilled water in a concentration of 200 mg/mL, heating to 132° C. for 3 hours, and lyophilizing the heated mixture was used. The content of the cyclic dipeptide of the soybean peptide heat-treated product was measured according to LC-MS/MS under the following conditions. […]

Solubility in water = format: physicochemical; details: Table 5
Experimental: Concretely, each compound was added to distilled water (manufactured by Otsuka Pharmaceutical Co., Ltd.) at an ambient temperature (25° C.) so as to have a final concentration of 5 mM, and the mixture was stirred under ultrasonication for 30 minutes to dissolve. […] However, none of the compounds dissolved, so that distilled water was further added thereto so as to have a final concentration of 0.01 mM, and the mixture was stirred under ultrasonication for 30 minutes, but still no compounds dissolved.

SMILES	IC50 (xanthine oxidase (XO) [1]) [µM]	stability of the standard product in an aqueous solution [2]	xanthine oxidase activity in the sera (xanthine oxidase (XO) [3]; FIG. 3 lower panel)	xanthine oxidase activity in the liver (xanthine oxidase (XO) [3]; FIG. 3 upper panel)	serum uric acid level vs PO Group (hyperuricemic mice; 30 mg/kg orally)	serum uric acid level vs PO Group (hyperuricemic mice; 100 mg/kg orally)	action of lowering serum uric acid level, dose dependence (hyperuricemic mice; 10, 30, 100 mg/kg orally, 1 h after PO 250 mg/kg i.p., blood 2 hours after PO)	solubility in water (in words) (Solubility in water)	solubility at 30 min (Solubility in water; distilled water, 25° C., ultrasonication 30 minutes, visual examination, tested at 5, 1, 0.1, 0.01 mM, insoluble = not dissolved at 0.01 mM) [µM]	serum uric acid level vs PO Group (hyperuricemic mice; 1 mg/kg orally)
O=C1NC(Cc2ccc(O)cc2)C(=O)NC1CS (centres unmarked) [Cyclo(Tyr-Cys)]	77.2 ± 4.7	unstable in an aqueous solution								
O=C1CNC(=O)C(Cc2ccc(O)cc2)N1 (centres unmarked) [Cyclo(Tyr-Gly), cyclotyrosylglycine]	49 ± 3		inhibited	inhibited	significant difference in effects on the PO Group	significant difference in effects on the PO Group	action of lowering a uric acid level in a dose-dependent manner	high solubility in water	1000 (≈ 220 µg/mL)	
Oc1ncnc2[nH]ncc12 [Allopurinol, reference compound]										significant difference in effects on the PO Group
